31 compounds from US20070010671A1, “Novel quinazoline derivatives and methods of treatment related to the use thereof” (priority 2003, published 2007) can be followed below.

Structures are written as SMILES.

The assay addresses MCH receptor (Homo sapiens, UniProt Q99705). Briefly: High throughput functional screening FLIPR/FDSS6000: inhibition of MCH-evoked intracellular Ca2+ changes. It counts as cell-based. As to conditions: class by percent of control at 10^-7 M or IC50. A digest of the protocol: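 Antagonism was measured as inhibition of calcium responses to 50 nM MCH, monitored 290 s at ex 488/em 530 nm on FLIPR or FDSS6000. Beforehand, cells bearing a constitutively active MCH receptor received Fluo4-AM (4 μM, 1 h, 37 °C) with probenecid, and test compound for 3 min.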

Turning to `COc1ccc(OC)c(CCNC(=S)N[C@H]2CC[C@@H](Nc3nc(N(C)C)c4ccccc4n3)CC2)c1` [compound 296, N-[2-(2,5-dimethoxyphenyl)ethyl]-N′-(cis-4-{[4-(dimethylamino)quinazolin-2-yl]amino}cyclohexyl)thiourea], the class is 2 (Class 2: The value of percent of control at 10^−7 M was from 40% to 60% or the value of IC50 was from 50 nM to 200 nM.). For `CN(C)c1nc(N[C@H]2CC[C@@H](NC(=S)Nc3ccccc3-c3ccccc3)CC2)nc2ccccc12` [compound 297, N-biphenyl-2-yl-N′-(cis-4-{[4-(dimethylamino)quinazolin-2-yl]amino}cyclohexyl)thiourea], the class is reported as 1 (Class 1: The value of percent of control at 10^−7 M was less than 40% or the value of IC50 was less than 50 nM.). Consider `CN(C)c1nc(N[C@H]2CC[C@@H](NC(=S)Nc3cc([N+](=O)[O-])ccc3Cl)CC2)nc2ccccc12` [compound 298], for which the class was 3 (Class 3: The value of percent of control at 10^−7 M was more than 60% or the value of IC50 was more than 200 nM.). `CN(C)c1nc(N[C@H]2CC[C@@H](NC(=S)Nc3ccccc3C#N)CC2)nc2ccccc12` [compound 299]: the class is listed as 3 (Class 3: The value of percent of control at 10^−7 M was more than 60% or the value of IC50 was more than 200 nM.).

Regarding `CN(C)c1nc(N[C@H]2CC[C@@H](NC(=S)NCc3ccccc3F)CC2)nc2ccccc12` [compound 300], the class is given as 2 (Class 2: The value of percent of control at 10^−7 M was from 40% to 60% or the value of IC50 was from 50 nM to 200 nM.).

As for `COc1ccc([N+](=O)[O-])cc1NC(=S)N[C@H]1CC[C@@H](Nc2nc(N(C)C)c3ccccc3n2)CC1` [compound 301], the class is given as 3 (Class 3: The value of percent of control at 10^−7 M was more than 60% or the value of IC50 was more than 200 nM.).

In the case of `Cc1cc([N+](=O)[O-])ccc1NC(=S)N[C@H]1CC[C@@H](Nc2nc(N(C)C)c3ccccc3n2)CC1` [compound 302, N-(cis-4-{[4-(dimethylamino)quinazolin-2-yl]amino}cyclohexyl)-N′-(2-methyl-4-nitrophenyl)thiourea], the class is 1 (Class 1: The value of percent of control at 10^−7 M was less than 40% or the value of IC50 was less than 50 nM.). With `Cc1ccccc1CNC(=S)N[C@H]1CC[C@@H](Nc2nc(N(C)C)c3ccccc3n2)CC1` [compound 303, N-(cis-4-{[4-(dimethylamino)quinazolin-2-yl]amino}cyclohexyl)-N′-(2-methylbenzyl)thiourea] the figure was 2 (Class 2: The value of percent of control at 10^−7 M was from 40% to 60% or the value of IC50 was from 50 nM to 200 nM.). Under `COc1ccc(CNC(=S)N[C@H]2CC[C@@H](Nc3nc(N(C)C)c4ccccc4n3)CC2)cc1OC` [compound 304] stands 3 (Class 3: The value of percent of control at 10^−7 M was more than 60% or the value of IC50 was more than 200 nM.); under `CN(C)c1nc(N[C@H]2CC[C@@H](NC(=S)NCc3cccc(Cl)c3)CC2)nc2ccccc12` [compound 305, N-(3-chlorobenzyl)-N′-(cis-4-{[4-(dimethylamino)quinazolin-2-yl]amino}cyclohexyl)thiourea], 1 (Class 1: The value of percent of control at 10^−7 M was less than 40% or the value of IC50 was less than 50 nM.); under `CCOC(=O)c1cccc(NC(=S)N[C@H]2CC[C@@H](Nc3nc(N(C)C)c4ccccc4n3)CC2)c1` [compound 306], 1 (Class 1: The value of percent of control at 10^−7 M was less than 40% or the value of IC50 was less than 50 nM.).

For the compound `CCc1cccc(NC(=S)N[C@H]2CC[C@@H](Nc3nc(N(C)C)c4ccccc4n3)CC2)c1` [compound 307], the class is listed as 2 (Class 2: The value of percent of control at 10^−7 M was from 40% to 60% or the value of IC50 was from 50 nM to 200 nM.). Consider `CN(C)c1nc(N[C@H]2CC[C@@H](NC(=S)NCc3cccc(F)c3)CC2)nc2ccccc12` [compound 308, N-(cis-4-{[4-(dimethylamino)quinazolin-2-yl]amino}cyclohexyl)-N′-(3-fluorobenzyl)thiourea], for which the class is 2 (Class 2: The value of percent of control at 10^−7 M was from 40% to 60% or the value of IC50 was from 50 nM to 200 nM.). Under `COc1cccc(CNC(=S)N[C@H]2CC[C@@H](Nc3nc(N(C)C)c4ccccc4n3)CC2)c1` [compound 309, N-(cis-4-{[4-(dimethylamino)quinazolin-2-yl]amino}cyclohexyl)-N′-(3-methoxybenzyl)thiourea] stands 2 (Class 2: The value of percent of control at 10^−7 M was from 40% to 60% or the value of IC50 was from 50 nM to 200 nM.); under `Cc1cccc(CNC(=S)N[C@H]2CC[C@@H](Nc3nc(N(C)C)c4ccccc4n3)CC2)c1` [compound 310, N-(cis-4-{[4-(dimethylamino)quinazolin-2-yl]amino}cyclohexyl)-N′-(3-methylbenzyl)thiourea], 2 (Class 2: The value of percent of control at 10^−7 M was from 40% to 60% or the value of IC50 was from 50 nM to 200 nM.); under `CN(C)c1nc(N[C@H]2CC[C@@H](NC(=S)Nc3ccc(Br)c(Cl)c3)CC2)nc2ccccc12` [compound 311], 3 (Class 3: The value of percent of control at 10^−7 M was more than 60% or the value of IC50 was more than 200 nM.).

`Cc1cc(NC(=S)N[C@H]2CC[C@@H](Nc3nc(N(C)C)c4ccccc4n3)CC2)ccc1Br` [compound 312]: the class is given as 3 (Class 3: The value of percent of control at 10^−7 M was more than 60% or the value of IC50 was more than 200 nM.). Under `CN(C)c1nc(N[C@H]2CC[C@@H](NC(=S)Nc3ccc(C(=O)O)cc3)CC2)nc2ccccc12` [compound 313] stands 3 (Class 3: The value of percent of control at 10^−7 M was more than 60% or the value of IC50 was more than 200 nM.); under `CN(C)c1nc(N[C@H]2CC[C@@H](NC(=S)Nc3ccc(Cl)cc3C(F)(F)F)CC2)nc2ccccc12` [compound 314, N-[4-chloro-2-(trifluoromethyl)phenyl]-N′-(cis-4-{[4-(dimethylamino)quinazolin-2-yl]amino}cyclohexyl)thiourea], 1 (Class 1: The value of percent of control at 10^−7 M was less than 40% or the value of IC50 was less than 50 nM.).

On to `CCCCCCCCCCc1ccc(NC(=S)N[C@H]2CC[C@@H](Nc3nc(N(C)C)c4ccccc4n3)CC2)cc1` [compound 315], for which the class is given as 3 (Class 3: The value of percent of control at 10^−7 M was more than 60% or the value of IC50 was more than 200 nM.). As for `Cc1cc(F)ccc1NC(=S)N[C@H]1CC[C@@H](Nc2nc(N(C)C)c3ccccc3n2)CC1` [compound 316, N-(cis-4-{[4-(dimethylamino)quinazolin-2-yl]amino}cyclohexyl)-N′-(4-fluoro-2-methylphenyl)thiourea], the class was 1 (Class 1: The value of percent of control at 10^−7 M was less than 40% or the value of IC50 was less than 50 nM.). Under `CN(C)c1nc(N[C@H]2CC[C@@H](NC(=S)Nc3ccc(Oc4ccc([N+](=O)[O-])cc4)cc3)CC2)nc2ccccc12` [compound 317] stands 3 (Class 3: The value of percent of control at 10^−7 M was more than 60% or the value of IC50 was more than 200 nM.); under `CN(C)c1nc(N[C@H]2CC[C@@H](NC(=S)Nc3ccc(Sc4ccc([N+](=O)[O-])cc4)cc3)CC2)nc2ccccc12` [compound 318], 3 (Class 3: The value of percent of control at 10^−7 M was more than 60% or the value of IC50 was more than 200 nM.); under `CN(C)c1nc(N[C@H]2CC[C@@H](NC(=S)Nc3ccc(S(N)(=O)=O)cc3)CC2)nc2ccccc12` [compound 319], 3 (Class 3: The value of percent of control at 10^−7 M was more than 60% or the value of IC50 was more than 200 nM.). In the case of `COc1ccc(NC(=S)N[C@H]2CC[C@@H](Nc3nc(N(C)C)c4ccccc4n3)CC2)c(C)c1` [compound 320, N-(cis-4-{[4-(dimethylamino)quinazolin-2-yl]amino}cyclohexyl)-N′-(4-methoxy-2-methylphenyl)thiourea], the class is listed as 1 (Class 1: The value of percent of control at 10^−7 M was less than 40% or the value of IC50 was less than 50 nM.). With `COc1ccc(C(=O)NC(=S)N[C@H]2CC[C@@H](Nc3nc(N(C)C)c4ccccc4n3)CC2)cc1` [compound 321] the figure was 3 (Class 3: The value of percent of control at 10^−7 M was more than 60% or the value of IC50 was more than 200 nM.); with `Cc1ccc(CCNC(=S)N[C@H]2CC[C@@H](Nc3nc(N(C)C)c4ccccc4n3)CC2)cc1` [compound 322], 3 (Class 3: The value of percent of control at 10^−7 M was more than 60% or the value of IC50 was more than 200 nM.); with `CN(C)c1nc(N[C@H]2CC[C@@H](NC(=S)Nc3ccc(Oc4ccccc4)cc3)CC2)nc2ccccc12` [compound 323], 3 (Class 3: The value of percent of control at 10^−7 M was more than 60% or the value of IC50 was more than 200 nM.). Under `COc1cc(OC)c(NC(=S)N[C@H]2CC[C@@H](Nc3nc(N(C)C)c4ccccc4n3)CC2)cc1Cl` [compound 324, N-(5-chloro-2,4-dimethoxyphenyl)-N′-(cis-4-{[4-(dimethylamino)quinazolin-2-yl]amino}cyclohexyl)thiourea] stands 1 (Class 1: The value of percent of control at 10^−7 M was less than 40% or the value of IC50 was less than 50 nM.). With `CN(C)c1nc(N[C@H]2CC[C@@H](NC(=S)Nc3ccc4c(c3)CCC4)CC2)nc2ccccc12` [compound 325, N-(2,3-dihydro-1H-inden-5-yl)-N′-(cis-4-{[4-(dimethylamino)quinazolin-2-yl]amino}cyclohexyl)thiourea] the figure was 2 (Class 2: The value of percent of control at 10^−7 M was from 40% to 60% or the value of IC50 was from 50 nM to 200 nM.); with `CN(C)c1nc(N[C@H]2CC[C@@H](NC(=S)NC(=O)/C=C/c3ccccc3)CC2)nc2ccccc12` [compound 326], 3 (Class 3: The value of percent of control at 10^−7 M was more than 60% or the value of IC50 was more than 200 nM.).
